Where two headings read alike, the source gives them in different places.
Key:
[1] = tested on: recombinant murine EPO receptor expressed in COS cells; test: Erythropoietin surface binding assay on COS-EPO-R transfectants (clone 190); parameters: species or system mouse
Procedure: FIG. 5 is a saturation curve showing the binding of iodinated EPO to cells expressing recombinant EPO-receptors. COS-EPO-R transfectants were incubated with various concentrations of radioiodinated human EPO for eight hours at 4° C. Non-specific binding was determined by incubating radioiodinated EPO with COS-1 monolayers, mock treated with the pXM vector (without the EPO-R cDNA insert). Also, for comparison, one binding point was determined for [^125 I]-EPO binding to COS EPO-R transfectants in the presence of […] unlabeled EPO. The inset is a Scatchard plot of the same data. Binding was compared for COS transfectants expressing EPO-R (specific binding) versus COS cells mock-transfected with the pXM plasmid without the EPO-R cDNA insert (non-specific binding). At all EPO concentrations, specific binding was approximately […] the binding to mock-transfected cells. By the above criterion, over 85% of this binding is deemed specific, though the "non-specific" binding could represent low-affinity binding to the transfected EPO receptor. […] Confluent monolayers of MEL cells, grown in 60 mm bacteriophage petri dishes pre-coated with fibronectin, were prepared (Patel and Lodish, supra (1987)). Confluent monolayers of COS-1 cells, transfected by the DEAE dextran method 72 hours before the binding assay with either two micrograms of clone 190 cDNA in pXM or two micrograms of pXM without cDNA insert (mock-transfected) per monolayer, were prepared. Monolayers were washed at 4° C. with HBS/Hepes three times. Radioiodinated EPO (10 pM to 2nM range) was added to each monolayer in LBB. Incubations were performed at 4° C. for eight hours with gentle rocking. Monolayers were washed, solubilized, and counted in the gamma counter as described. Assays for nonspecific binding were performed in which the assay mixture contained a 100-fold excess 1(100 nM) of unlabeled erythropoietin. The radioactivity bound in the assays with excess unlabeled erythropoietin (nonspecific binding) was subtracted from the total binding to yield the specific binding. All binding assays were run in duplicate.

[2] = molecular target: human EPO receptor; test: Erythropoietin surface binding assay on stable CHO lines expressing the human EPO receptor; settings: one hour at 37° C.
Procedure: Confluent monolayers of MEL cells, grown in 60 mm bacteriophage petri dishes pre-coated with fibronectin, were prepared (Patel and Lodish, supra (1987)). Confluent monolayers of COS-1 cells, transfected by the DEAE dextran method 72 hours before the binding assay with either two micrograms of clone 190 cDNA in pXM or two micrograms of pXM without cDNA insert (mock-transfected) per monolayer, were prepared. Monolayers were washed at 4° C. with HBS/Hepes three times. Radioiodinated EPO (10 pM to 2nM range) was added to each monolayer in LBB. Incubations were performed at 4° C. for eight hours with gentle rocking. Monolayers were washed, solubilized, and counted in the gamma counter as described. Assays for nonspecific binding were performed in which the assay mixture contained a 100-fold excess 1(100 nM) of unlabeled erythropoietin. The radioactivity bound in the assays with excess unlabeled erythropoietin (nonspecific binding) was subtracted from the total binding to yield the specific binding. All binding assays were run in duplicate. The level of cell surface expression of the human EPO receptor was determined by the erythropoietin surface binding assay, described above for the expression of the murine EPO receptor in COS-1 cells, except that radioiodinated EPO, from 10 pM to 2 nM, was bound for one hour at 37° C. in the presence of 0.02% (w/v) sodium azide and 1% (v/v) aprotinin.

[3] = molecular target: EPO-responsive splenic erythroblasts; settings: FVA-injected mice, cited from earlier work
[4] = purified, homogeneous erythropoietin; cited from earlier work
[5] = molecular target: EPO receptor; settings: most cell surface binding studies; read-out: Kd, single class of binding sites; cited from earlier work
[6] = tested on: EPO receptor on MEL cells; test: Erythropoietin surface binding assay on MEL cell monolayers; parameters: species or system mouse; settings: single affinity; radioiodinated human EPO, 8 hours at 4° C.; read-out: affinity of MEL cell EPO-R for EPO
Procedure: FIG. 4 is a saturation curve showing the binding of iodinated EPO to MEL cells. Non-specific binding was determined by co-incubation with 100 nM of unlabeled EPO. The MEL cells were grown on fibronectin monolayers and were incubated with various concentrations of radioiodinated human EPO for eight hours at 4° C. The specific binding is shown as the difference between total and non-specific binding. The inset is a Scatchard plot of the same data. […] For these experiments, MEL cells, grown as monolayers on fibronectin coated dishes, were incubated for eight hours at 4° C. with ^125 I EPO. Specific binding and nonspecific binding of [^125 I]-EPO, measured in the presence of 100 nM unlabeled EPO was determined. Nonspecific binding was approximately half of the total (=specific plus nonspecific) binding. Because of the relatively low number of EPO-R on MEL cells and, therefore, the small specific binding observed at low concentrations of [^125 I-EPO], in the 10-50 pM range, it is not possible to rule out a high affinity EPO-R in this range. […] Monolayers were washed, solubilized, and counted in the gamma counter as described. […] The radioactivity bound in the assays with excess unlabeled erythropoietin (nonspecific binding) was subtracted from the total binding to yield the specific binding. […]

[7] = tested on: FDCPE cells; test: Inhibition of the EPO response of FDCPE cells by secreted EPO receptor; assay type: cell-based, mouse; settings: 0.4, 0.8 and 1 u/ml EPO; serial dilutions of CHO conditioned media (ca. 0.5 μg/ml secreted receptor)
Procedure: The FDCPE and 32DE cell lines were further characterized by their dose dependent response to EPO. A 96 well plate was seeded with 1×10^4 cells/well and incubated with EPO (0.0001 to 10 u/ml) for 24 hours and then labelled with [^3 H]-thymidine for 4hr, the cells were collected and counted for thymidine incorporation. The cells respond to EPO dose dependent manner from 0.01 to 1 u/ml.
FDCPE cells were incubated and assayed with either 0.4, 0.8 and 1 u/ml of EPO as described above but also with serial dilutions of media from a CHO line expressing the secreted EPO receptor (ca. 0.5 μg/ml).

Kd ([2]; CHO cell line 9'.250, 34% of sites, Scatchard analysis, read-out: affinity for EPO, higher affinity sites)	Kd ([2]; CHO cell line 9'.250, Scatchard analysis, read-out: affinity for EPO, remainder of sites)	Kd ([2]; CHO cell line 10'.1.25, read-out: affinity for EPO, single affinity)	Molecule	Kd ([1]; COS transfectants, Scatchard analysis, 8 hours at 4° C., read-out: dissociation constant, high affinity receptor)	Kd ([1]; COS transfectants, Scatchard analysis, 8 hours at 4° C., read-out: dissociation constant, low affinity receptor)	Kd ([1]; cell type not stated, read-out: dissociation constant of the high affinity receptor)	Kd ([3]; read-out: dissociation constant, high affinity binding site)	Kd ([3]; read-out: dissociation constant, low affinity binding site)	specific activity [4]	Kd [5]	Kd [6]	inhibition of [3H]-thymidine incorporation into FDCPE cells [7]
0.126 nM	0.66 nM	3 nM	erythropoietin [EPO]	0.03 nM	0.21 nM	0.05 nM	0.1 nM	0.8 nM	at least 160,000 IU per absorbance unit at 280 nanometers	~0.8 nM	~0.24 nM	
			secreted EPO receptor: secreted human erythropoietin receptor lacking transmembrane and cytoplasmic domains, tested as conditioned media from a CHO line (protein, UniProt P19235 25-250, looked up, extracellular domain, secreted human erythropoietin receptor lacking transmembrane and cytoplasmic domains, tested as conditioned media from a CHO line) extracellular domain: APPPNLPDPKFESKAALLAARGPEELLCFTERLEDLVCFWEEAASAGVGPGNYSFSYQLEDEPWKLCRLHQAPTARGAVRFWCSLPTADTSSFVPLELRVTAASGAPRYHRVIHINEVVLLDAPVGLVARLADESGHVVLRWLPPPETPMTSHIRYEVDVSAGNGAGSVQRVEILEGRTECVLSNLRGRTRYTFAVRARMAEPSFGGFWSAWSEPVSLLTPSDLDP									inhibited the incorporation of [^3 H]-thymidine into the FDCPE cells

From patent US5278065A, “Recombinant DNA endoding an erythropoietin receptor” (Genetics Institute, Inc., priority 1991, dated 1994)
